Values quoted from earlier work in patent publication US10781471B2, “NRAS related cancer therapy” (Ruijin Hospital Affiliated to Shanghai Jiao Tong University …, priority 2014, dated 2020).

System: acute lymphoblastic leukemia (ALL)
Details: methotrexate 3.3 mg/m^2 in combination with 60 mg/m^2 of prednisone, given daily; induction in ALL patients

CN(Cc1cnc2nc(N)nc(N)c2n1)c1ccc(C(=O)N[C@@H](CCC(=O)O)C(=O)O)cc1 [methotrexate, Methotrexate]
period within which remission was usually produced: 4 to 6 weeks
remissions, share of patients treated: 50%
